We go through 12 compounds from patent publication US11643424B2, “Cardiopathy-reducing phosphodiester lipids” (Signpath Pharma, Inc., priority 2018, dated 2023).

The test system of series [1] is Moxifloxacin-induced QTc prolongation. The series is described as follows: Cardiac response testing: protection against Moxifloxacin-induced QTc prolongation (ECG telemetry). The format is in vivo, adult male Hartley guinea pigs. Particulars: for inhibition in vivo at 2 mg/kg: Cavia porcellus, po; for Maximal prolongation: QTc; for Onset of protection / Time of maximal protection / Duration of complete protection: single oral 2 mg/kg test compound with oral moxifloxacin; for Duration of complete protection: 6 h recording. The procedure: Efficacy evaluation of the compounds of the present invention involved ECG measurements of adult male Hartley guinea pigs wherein PR, QRS, QT, QTc, JT, RR were recorded. In typical experiments, subcutaneous Kaha TR50B bio potential telemeters were surgically implanted in adult male Hartley guinea pigs weighing 300 to 350 g at enrollment. One lead was sutured to the apex of the heart, while another was sutured to the side of the aorta. The animals were allowed to recover from surgery for 5 days prior to being returned to the testing colony. Following recovery, animals were subjected to two rounds of evaluation as follows:
The animals were then returned to their housing to washout the drug over 5 to 7 days.
ECGs were acquired continuously for 6 hours. The animals were then returned to their housing to washout the drug over 5 to 7 days.
ECG analysis over 5 minutes pre-dose and 6 hours post dose consisted in was automated based on pattern recognition algorithms. The analyzed data were binned into 5-minute segments. Intervals such as PR, QRS, QT, QTc, JT and RR were analyzed automatically using AD Instruments LabChart Pro v8. The accuracy of the measurements was verified manually using digital cursors by randomly selecting 3 to 5 segments at any given time postdose. […] The frequency of arrhythmia was quantified and expressed as “% of ECG time spent in abnormal sinus rhythm over entire duration of the recording”.

The subject of the next series is AV block. The series is described as follows: Drug-induced AV block: intravenous Fingolimod and/or verapamil, without and with oral 14:0 lyso PG (ECG, PR intervals). The format is in vivo, guinea pigs. As to the method: To test this hypothesis, guinea pigs were instrumented (subcutaneous ECG leads) and exposed to increasing intravenous doses of Fingolimod and/or verapamil, without and with an oral dose of 14:0 lyso PG. ECG signals were recorded continuously for 2 hours post-dose for the AV blockers Fingolimod and verapamil. PR intervals were measured following the infusion of Fingolimod. Measurements of PR were stopped when the P wave disconnected from the QRS complexes, indicating 3rd degree AV block.
Guinea pigs exposed to an intravenous infusion of Fingolimod alone transitioned to 1st degree AV block as of a dose of 15 μg/kg, which rapidly progressed to a Mobitz Type-1, 2nd-degree AV block at 20 μg/kg, and finally progressed to 3rd degree AV block as of a dose of 23 μg/kg.
The cohort of guinea pigs exposed to verapamil received an i.v. injection of 0.5 mg/kg, followed 60 minutes later by an intravenous infusion of Fingolimod. A 1st-degree AV block appeared at a dose of 7 μg/kg, changed to a Mobitz-Type-1 2nd degree AV block at 10 μg/kg, and transitioned to 3rd-degree dissociation between P waves and QRS complexes as of 45 μg/kg.
The third cohort of animals received an initial oral gavage of 1.0 mg/kg 14:0 lyso PG, followed 60 minutes later by an intravenous dose of 0.5 mg/kg verapamil. Sixty (60) minutes post-verapamil, Fingolimod was infused into the animals as described above. […] A Mobitz-Type-2 AV block appeared in 2 out of 6 animals with P-QRS dissociation observed at a dose of 51 μg/kg in those two animals, and at 300 μg/kg in the rest of the animals in the cohort.

[2] abbreviates: 1 h, read-out: Protection at 1 h post dose.
The mark [3] stands for this setting: 2 h, read-out: Protection at 2 h post dose.
The mark [4] stands for this setting: 4 h, read-out: Protection at 4 h post dose.
The mark [5] stands for this setting: 6 h, read-out: Protection at 6 h post dose.
Where [6] appears, read: test compound 2 mg/kg oral given with moxifloxacin.
Where [7] appears, read: i.v. verapamil 0.5 mg/kg 60 minutes before Fingolimod infusion.
Setting [8] is: intravenous infusion of Fingolimod alone.

Where two headings read alike, the source gives them in different places.

Regarding `CCCCCCCCCCCCCC(=O)OC[C@H](COP(=O)([O-])OCC(COC(C)=O)OC(C)=O)OC(=O)CCCCCCCCCCCCC.[Na+]` (stereo partly drawn) [Compound 1, Sodium (R)-2,3-bis(tetradecanoyloxy)propyl (2,3-diacetoxypropyl) Phosphate], the inhibition in vivo at 2 mg/kg in series [1] (setting [2]) amounted to 118%; in series [1] (setting [3]) it was 122%; in series [1] (setting [4]) it was 100%; in series [1] (setting [5]), 116%. In series [1] (setting [6]), this compound came in with a Maximal prolongation of 0 ms. Moreover, the Onset of protection in series [1] was found to be 1 h. In addition, the “Time of maximal protection” value in series [1] is 2 h. Further, in series [1], the “Duration of complete protection” value was 6 h.
As to `CCCCCCCCCCCCCC(=O)OC[C@H](COP(=O)([O-])OCC(COC(=O)OCC)OC(=O)OCC)OC(=O)CCCCCCCCCCCCC.[Na+]` (stereo partly drawn) [Compound 2, Sodium 2,3-bis((ethoxycarbonyl)oxy)propyl ((R)-2,3-bis (tetra decanoyloxy)propyl) Phosphate], the inhibition in vivo at 2 mg/kg in series [1] (setting [2]) worked out at 95%; in series [1] (setting [3]), 88%; in series [1] (setting [4]) it was 22%; in series [1] (setting [5]), 90%. In addition, the Maximal prolongation in series [1] (setting [6]) turned out to be 4 ms. This compound gave an Onset of protection in series [1] of 1 h. Also, the “Time of maximal protection” value in series [1] is 2 h. Moreover, the “Duration of complete protection” value in series [1] was 4 h.
As for `CCCCCCCCCCCCCCCCCC1OCC(COP(=O)([O-])OC[C@@H](COC(=O)CCCCCCCCCCCCC)OC(=O)CCCCCCCCCCCCC)O1.[Na+]` (stereo partly drawn) [Compound 4, Sodium (R)-2,3-bis (tetradecanoyloxy)propyl ((2-heptadecyl-1,3-dioxolan-4-yl)methyl) Phosphate], the inhibition in vivo at 2 mg/kg in series [1] (setting [2]) amounted to 95%; in series [1] (setting [3]), 88%; in series [1] (setting [4]) it was 22%; in series [1] (setting [5]) it was 90%. The Maximal prolongation in series [1] (setting [6]) was determined as 8 ms. The compound also yielded an Onset of protection in series [1] of 1 h. The “Time of maximal protection” value in series [1] is 2 h. The “Duration of complete protection” value in series [1] is recorded as 4 h.
On to `CCCCCCCCCCCCCCCC1OCC(COP(=O)([O-])OC[C@@H](COC(=O)CCCCCCCCCCCCC)OC(=O)CCCCCCCCCCCCC)O1.[Na+]` (stereo partly drawn) [Compound 5, Sodium (R)-2,3-bis(tetradecanoyloxy)propyl ((2-pentadecyl-1,3-dioxolan-4-yl)methyl) Phosphate], for which the inhibition in vivo at 2 mg/kg turned out to be 35% in series [1] (setting [2]), 113% in series [1] (setting [3]), 126% in series [1] (setting [4]) and 176% in series [1] (setting [5]). In addition, the Maximal prolongation in series [1] (setting [6]) is on record as 0 ms. This compound yielded an Onset of protection in series [1] of 2 h. In series [1], the “Time of maximal protection” value is 2 h. The “Duration of complete protection” value in series [1] came out at 6 h.
With `CCCCCCCCCCCCCC(=O)OC[C@H](COP(=O)([O-])OCC1COC(CCCCC)O1)OC(=O)CCCCCCCCCCCCC.[Na+]` (stereo partly drawn) [Compound 6, Sodium (R)-2,3-bis(tetradecanoyloxy)propyl ((2-pentyl-1,3-dioxolan-4-yl)methyl) Phosphate], the inhibition in vivo at 2 mg/kg was determined as 74% in series [1] (setting [2]), 110% in series [1] (setting [3]), 115% in series [1] (setting [4]) and 138% in series [1] (setting [5]). In series [1] (setting [6]), this compound returned a Maximal prolongation of 3 ms. The Onset of protection in series [1] is 1 h. In series [1], the “Time of maximal protection” value was determined as 2 h. Further, the “Duration of complete protection” value in series [1] is recorded as 6 h.
On to `CCCCCCCCCCCCCC(=O)OC[C@H](COP(=O)([O-])OCC(COC(=O)CCC)OC(=O)CCC)OC(=O)CCCCCCCCCCCCC.[Na+]` (stereo partly drawn) [Compound 7, Sodium 2,3-bis(butyryloxy)propyl ((R)-2,3-bis(tetradecanoyloxy)propyl) Phosphate], for which the inhibition in vivo at 2 mg/kg in series [1] (setting [2]) turned out to be 83%; in series [1] (setting [3]) it was 100%; in series [1] (setting [4]), 119%; in series [1] (setting [5]) it was 147%. The same compound showed a Maximal prolongation in series [1] (setting [6]) of 4 ms. Moreover, the Onset of protection in series [1] is on record as 1 h. Also, in series [1], the “Time of maximal protection” value came to 2 h. Also, the “Duration of complete protection” value in series [1] turned out to be 6 h.
On to `CCCCCCCCCCCCCC(=O)OC[C@H](COP(=O)([O-])OCC(COC(=O)CC(C)C)OC(=O)CC(C)C)OC(=O)CCCCCCCCCCCCC.[Na+]` (stereo partly drawn) [Compound 8, Sodium 2,3-bis((3-methylbutanoyl)oxy)propyl ((R)-2,3-bis(tetradecanoyloxy)propyl) Phosphate], for which the inhibition in vivo at 2 mg/kg turned out to be 74% in series [1] (setting [2]), 97% in series [1] (setting [3]), 100% in series [1] (setting [4]) and 132% in series [1] (setting [5]). For the same compound, the Maximal prolongation in series [1] (setting [6]) is 2 ms. The Onset of protection in series [1] was 1 h. Also, the “Time of maximal protection” value in series [1] turned out to be 2 h. The “Duration of complete protection” value in series [1] was 6 h.
With `CCCCCCCCCCCCCC(=O)OC[C@H](COP(=O)([O-])OCC(COC(=O)C(C)C)OC(=O)C(C)C)OC(=O)CCCCCCCCCCCCC.[Na+]` (stereo partly drawn) [Compound 9, Sodium 2,3-bis(isobutyryloxy)propyl ((R)-2,3-bis(tetradecanoyloxy)propyl) Phosphate], the inhibition in vivo at 2 mg/kg in series [1] (setting [2]) amounted to 91%; in series [1] (setting [3]), 94%; in series [1] (setting [4]), 100%; in series [1] (setting [5]), 116%. For the same compound, the Maximal prolongation in series [1] (setting [6]) is on record as 3 ms. Also, the Onset of protection in series [1] is listed as 1 h. For the same compound, in series [1], the “Time of maximal protection” value amounted to 2 h. For the same compound, the “Duration of complete protection” value in series [1] is given as 6 h.
With `CCCCCCCCCCCCCC(=O)OC[C@H](COP(=O)([O][MgH])OCC(COC(=O)OCC)OC(=O)OCC)OC(=O)CCCCCCCCCCCCC` (stereo partly drawn) [Compound 10, magnesium-2,3-bis((ethoxycarbonyl)oxy)propyl((R)-2,3-bis(tetradecanoyloxy)propyl) Phosphate], the “Protection at 1 h post dose” value in series [1] (percent of Moxifloxacin effect, single oral 2 mg/kg test compound concomitantly with oral moxifloxacin 20 mg/kg, 1 h post dose) is listed as 83%. In series [1], the Onset of protection is listed as 1 h, the “Time of maximal protection” value is listed as 2 h and the “Duration of complete protection” value was determined as 6 h.
On to `CCCCCCCCCCCCCC(=O)OC[C@H](COP(=O)([O][MgH])OCC(COC(=O)OCC)OC(=O)OCC)OC(=O)CCCCCCCCCCCCC` (stereo partly drawn) [Compound 11, calcium-2,3-bis((ethoxycarbonyl)oxy)propyl ((R)-2,3-bis(tetradecanoyloxy)propyl) Phosphate], for which the inhibition in vivo at 2 mg/kg in series [1] (1 h, read-out: Protection at 1 h post dose, percent of Moxifloxacin effect, single oral 2 mg/kg test compound concomitantly with oral moxifloxacin 20 mg/kg, 1 h post dose) amounted to 83%; in series [1] (2 h, read-out: Protection at 2 h post dose, percent of Moxifloxacin effect, single oral 2 mg/kg test compound concomitantly with oral moxifloxacin 20 mg/kg, 2 h post dose), 94%; in series [1] (4 h, read-out: Protection at 4 h post dose, percent of Moxifloxacin effect, single oral 2 mg/kg test compound concomitantly with oral moxifloxacin 20 mg/kg, 4 h post dose), 91%; in series [1] (6 h, read-out: Protection at 6 h post dose, percent of Moxifloxacin effect, single oral 2 mg/kg test compound concomitantly with oral moxifloxacin 20 mg/kg, 6 h post dose) it was 116%. The same compound returned a Maximal prolongation in series [1] (test compound 2 mg/kg oral given with moxifloxacin, 2 mg/kg) of 8 ms. The compound also displayed an Onset of protection in series [1] of 1 h. Moreover, the “Time of maximal protection” value in series [1] is reported as 2 h. The “Duration of complete protection” value in series [1] was found to be 6 h.
For `CCCCCCCCc1ccc(CCC(N)(CO)CO)cc1` [Fingolimod], in the series on AV block (setting [7]), the “Fingolimod dose at 1st-degree AV block” value was 0.007 mg/kg; the “Fingolimod dose at 3rd-degree dissociation between P waves and QRS complexes” value is 0.045 mg/kg; the “Fingolimod dose at Mobitz-Type-1 2nd degree AV block” value was 0.01 mg/kg. Moreover, in the series with AV block (setting [8]), the “Fingolimod dose at 1st degree AV block” value came to 0.015 mg/kg; the “Fingolimod dose at 3rd degree AV block” value was 0.023 mg/kg; the “Fingolimod dose at Mobitz Type-1, 2nd-degree AV block” value was found to be 0.02 mg/kg.
Compound `COc1c(N2C[C@@H]3CCCN[C@@H]3C2)c(F)cc2c(=O)c(C(=O)O)cn(C3CC3)c12` [Moxifloxacin, reference compound] registered a Maximal prolongation in series [1] (Moxifloxacin alone, column head 40 mg/kg) of 29 ms.
